From patent US20110230428A1, “CERTAIN KYNURENINE-3-MONOOXYGENASE INHIBITORS, PHARMACEUTICAL COMPOSITIONS, AND METHODS OF USE THEREOF” (priority 2008, published 2011)
Structures can show the parent of a compound that is named as a salt.

What follows are compounds tested against T1, KMO mouse enzyme (Mus musculus, UniProt Q91WN4) (assay: KMO mouse enzyme assay: L-Kynurenine hydroxylation to 3OH-KYN by LC/MS). Conditions: compound at 10 μM; KMO from mouse liver mitochondria; read-out: INH.Mouse @ 10 μM.
T1 construct: KMO enzyme prepared at Evotec from mouse liver (4-6 weeks old) via mitochondria isolation; from tissue; host or cells: mouse liver (4-6 weeks old), isolated mitochondria
Type: biochemical
Experimental: A method of monitoring L-Kynurenine (KYN) hydroxylation to form 3-Hydroxy-Kynurenine (3OH-KYN) by LC/MS is described. Product is quantified by multiple reaction monitoring (MRM method).
• Compound: Stock concentrations: 10 mM in 100% DMSO • Enzyme: KMO enzyme prepared at Evotec from mouse liver (4-6 weeks old) via mitochondria isolation as described in the literature • Substrate: L-Kynurenine (Sigma: Cat# K3750, stock concentration: 10 mM in 100 mM potassium phosphate buffer, pH 7.4)
• Buffer: 100 mM potassium phosphate, pH 7.4, 200 μM NADPH, 0.4 U/ml G6P-DH (Glucose 6-phosphate Dehydrogenase), 3 mM G6P (D-Glucose 6-phosphate) • Assay Volume: 40 μl • Plate Format: 384 well plate, transparent (Matrix) • Read-Out: product (3OH-KYN) quantification using product specific MRM • Reader: LC/MS/MS
• prepare serial dilution (factor 3) of compound in 100% DMSO (top concentration=10 mM, 100% DMSO) • [8 points: 10 mM; 3.33 mM; 1.11 mM; 0.37 mM; 0.12 mM; 0.04 mM; 0.0137 mM; 0.0045 mM, 0.0015 mM] • prepare […] solution of each compound concentration (top concentration 300 μM, 3% DMSO) in assay buffer • [concentrations: 300 μM; 100 μM; 33.3 μM; 11.1 μM; 3.70 μM; 1.23 μM; 0.41 μM; 0.137 μM] • prepare substrate (10 mM) at concentration of 1 mM in assay buffer • assay mix: 4 μl compound/well of each concentration+24 μl assaybuffer/well+8 μl KMO mouse enzyme+4 μl 1 mM substrate (final concentration=100 μM) • [final compound top concentration: 30 μM; 0.3% DMSO] • [final compound bottom concentration: 0.0137 μM; 0.3% DMSO] • positive control: 4 μl 50 μM FCE28833 in assay buffer, 0.5% DMSO [final assay concentration=5 μM]+24 μl assaybuffer/well+8 μl KMO mouse enzyme+4 μl 1 mM substrate [final concentration=100 μM] • negative control: 28 μl assay buffer/well+8 μl KMO mouse enzyme+4 μl 1 mM substrate [final concentration=100 μM] • incubate 40 min at RT • add 40 μl/well 10% trichloro acetic acid in water to stop the assay and precipitate protein • centrifuge plate for 3 min at 4000 rpm • product detection by LC/MS (injection of 20 μl/well, 2 fold overfill of the 10 μl sample loop) Data analysis: IC50's are calculated using automated fitting algorithm (A+Analysis).
Using procedures similar to those described herein, the following compounds were assayed for activity.

T1 sequence (Q91WN4 whole entry): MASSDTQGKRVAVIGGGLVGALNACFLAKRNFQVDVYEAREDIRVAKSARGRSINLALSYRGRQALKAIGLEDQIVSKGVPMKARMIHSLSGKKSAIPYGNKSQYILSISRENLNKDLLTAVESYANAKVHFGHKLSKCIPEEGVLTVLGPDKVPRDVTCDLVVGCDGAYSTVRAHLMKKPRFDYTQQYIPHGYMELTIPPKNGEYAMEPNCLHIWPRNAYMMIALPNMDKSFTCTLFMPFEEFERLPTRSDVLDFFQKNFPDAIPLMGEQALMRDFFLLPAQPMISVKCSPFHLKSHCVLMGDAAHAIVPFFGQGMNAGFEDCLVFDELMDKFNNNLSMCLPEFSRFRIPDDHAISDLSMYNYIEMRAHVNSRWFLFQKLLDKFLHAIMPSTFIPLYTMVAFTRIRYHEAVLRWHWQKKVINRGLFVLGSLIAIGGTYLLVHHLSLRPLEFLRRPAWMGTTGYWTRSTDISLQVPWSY

Row | Compound | inhibition at 10 µM
1 | CON=C(CCC(=O)Nc1cccnn1)c1ccc(Cl)c(Cl)c1 [4-(3,4-Dichloro-phenyl)-4-methoxyimino-N-pyridazin-3-yl-butyramide] | 101%
2 | COC(=O)CC/C(=N\OCc1ccccc1)c1ccc(Cl)c(Cl)c1 [4-Benzyloxyimino-4-(3,4-dichloro-phenyl)-butyric acid methyl ester] | 66%
3 | O=C(O)CC/C(=N\OCc1ccccc1)c1ccc(Cl)c(Cl)c1 [4-Benzyloxyimino-4-(3,4-dichloro-phenyl)-butyric acid] | 61.9%
4 | CON=C(CCC(=O)Nc1ccccc1)c1ccc(Cl)c(Cl)c1 [4-(3,4-Dichloro-phenyl)-4-methoxyimino-N-phenyl-butyramide] | 103%
5 | CON=C(CCC(=O)Nc1cnccc1C)c1ccc(Cl)c(Cl)c1 [4-(3,4-Dichloro-phenyl)-4-methoxyimino-N-(4-methyl-pyridin-3-yl)-butyramide] | 93.9%
6 | CON=C(CCC(=O)Nc1ncc(C)nc1C)c1ccc(Cl)c(Cl)c1 [4-(3,4-Dichloro-phenyl)-N-(3,5-dimethyl-pyrazin-2-yl)-4-methoxyimino-butyramide] | 101%
7 | CON=C(CCC(=O)Nc1c(C)cc(C)nc1C)c1ccc(Cl)c(Cl)c1 [4-(3,4-Dichloro-phenyl)-4-methoxyimino-N-(2,4,6-trimethyl-pyridin-3-yl)-butyramide] | 66.3%
8 | NCCON=C(CCC(=O)O)c1ccc(Cl)c(Cl)c1 [4-[2-Amino-ethoxyimino]-4-(3,4-dichloro-phenyl)-butyric acid trifluoroacetic acid salt] | 49.5%
9 | CON=C(CCC(=O)Nc1cncc(F)c1)c1ccc(Cl)c(Cl)c1 [4-(3,4-Dichloro-phenyl)-N-(5-fluoro-pyridin-3-yl)-4-methoxyimino-butyramide] | 90.3%
10 | CON=C(CCC(=O)Nc1ncccn1)c1ccc(Cl)c(Cl)c1 [4-(3,4-Dichloro-phenyl)-4-methoxyimino-N-pyrimidin-2-yl-butyramide] | 101%
11 | CON=C(CCC(=O)Nc1cnccn1)c1ccc(Cl)c(Cl)c1 [4-(3,4-Dichloro-phenyl)-4-methoxyimino-N-pyrazin-2-yl-butyramide] | 98%
12 | CON=C(CCC(=O)Nc1nncs1)c1ccc(Cl)c(Cl)c1 [4-(3,4-Dichloro-phenyl)-4-methoxyimino-N-[1,3,4]thiadiazol-2-yl-butyramide] | 95.2%
13 | CON=C(CCC(=O)Nc1c(C)ccnc1C)c1ccc(Cl)c(Cl)c1 [4-(3,4-Dichloro-phenyl)-N-(2,4-dimethyl-pyridin-3-yl)-4-methoxyimino-butyramide] | 85%
14 | CON=C(c1ccc(Cl)c(Cl)c1)[C@H]1C[C@@H]1C(=O)O [(1S,2S)-trans-2-[(3,4-Dichloro-phenyl)-methoxyimino-methyl]-cyclopropanecarboxylic acid] | 81.2%
15 | CON=C(CCC(=O)Nc1cccnc1)c1ccc(Cl)c(Cl)c1 [4-(3,4-Dichloro-phenyl)-4-methoxyimino-N-pyridin-3-yl-butyramide] | 103%
16 | CO/N=C(\CCC(=O)Nc1ccccn1)c1ccc(Cl)c(Cl)c1 [4-(3,4-Dichloro-phenyl)-4-methoxyimino-N-pyridin-2-yl-butyramide] | 104%
17 | CON=C(CCC(=O)Nc1cnc(C)nc1)c1ccc(Cl)c(Cl)c1 [4-(3,4-Dichloro-phenyl)-4-methoxyimino-N-(2-methyl-pyrimidin-5-yl)-butyramide] | 90.4%
18 | CON=C(CCC(=O)O)c1cccc(Cl)c1 [4-(3-Chloro-phenyl)-4-methoxyimino-butyric acid] | 101%
19 | CON=C(CCC(=O)N(C)c1cccnc1)c1ccc(Cl)c(Cl)c1 [4-(3,4-Dichloro-phenyl)-4-methoxyimino-N-methyl-N-pyridin-3-yl-butyramide] | 62.5%
20 | CON=C(CCc1nc2cnccc2[nH]1)c1ccc(Cl)c(Cl)c1 [1-(3,4-Dichloro-phenyl)-3-(1H-imidazo[4,5-c]pyridin-2-yl)-propan-1-one O-methyl-oxime] | 64.3%
21 | CON=C(CCC(=O)Nc1ccc(C)nc1C)c1ccc(Cl)c(Cl)c1 [4-(3,4-Dichloro-phenyl)-N-(2,6-dimethyl-pyridin-3-yl)-4-methoxyimino-butyramide] | 93%
22 | CON=C(CCC(=O)NCCN1CCOCC1)c1ccc(Cl)c(Cl)c1 [4-(3,4-Dichloro-phenyl)-4-methoxyimino-N-(2-morpholin-4-yl-ethyl)-butyramide] | 54.6%

The remaining lines, values ahead:

Row | inhibition at 10 µM | Compound
23 | 102% | CO/N=C(\CCC(=O)OC(C)C)c1ccc(Cl)c(Cl)c1 [4-(3,4-Dichloro-phenyl)-4-methoxyimino-butyric acid isopropyl ester]
24 | 90.5% | CO/N=C(\CCC(=O)Nc1cnn(C)c1)c1ccc(Cl)c(Cl)c1 [4-(3,4-Dichloro-phenyl)-4-methoxyimino-N-(1-methyl-1H-pyrazol-4-yl)-butyramide]
25 | 102% | CO/N=C(\CCC(=O)OC1CCOCC1)c1ccc(Cl)c(Cl)c1 [4-(3,4-Dichloro-phenyl)-4-methoxyimino-butyric acid tetrahydro-pyran-4-yl ester]
26 | 60.4% | CON=C(CCC(=O)N1CCCCC1)c1ccc(Cl)c(Cl)c1 [1-(3,4-Dichloro-phenyl)-4-piperidin-1-yl-butane-1,4-dione 1-(O-methyl-oxime)]
27 | 99.6% | O=C(O)CC/C(=N\OCC1CC1)c1ccc(Cl)c(Cl)c1 [4-Cyclopropylmethoxyimino-4-(3,4-dichloro-phenyl)-butyric acid]
28 | 57.3% | CON=C(CCC(=O)N1CCC(C)CC1)c1ccc(Cl)c(Cl)c1 [1-(3,4-Dichloro-phenyl)-4-(4-methyl-piperidin-1-yl)-butane-1,4-dione 1-(O-methyl-oxime)]
29 | 68% | CON=C(CCC(=O)NCCN(C)C)c1ccc(Cl)c(Cl)c1 [{2-[4-(3,4-Dichloro-phenyl)-4-methoxyimino-butyrylamino]-ethyl}-dimethyl-ammonium trifluoroacetate]
30 | 98.9% | CCNC(=O)CC/C(=N\OC)c1ccc(Cl)c(Cl)c1 [4-(3,4-Dichloro-phenyl)-N-ethyl-4-methoxyimino-butyramide]
31 | 107% | CCO/N=C(\CCC(=O)O)c1ccc(Cl)c(Cl)c1 [4-(3,4-Dichloro-phenyl)-4-ethoxyimino-butyric acid]
32 | 100% | CO/N=C(\CCC(=O)NC1CC1)c1ccc(Cl)c(Cl)c1 [N-Cyclopropyl-4-(3,4-dichloro-phenyl)-4-methoxyimino-butyramide]
33 | 102% | CO/N=C(\CCC(=O)OC1CCCC1)c1ccc(Cl)c(Cl)c1 [4-(3,4-Dichloro-phenyl)-4-methoxyimino-butyric acid cyclopentyl ester]
34 | 102% | CO/N=C(\CCC(=O)OC1CCC1)c1ccc(Cl)c(Cl)c1 [4-(3,4-Dichloro-phenyl)-4-methoxyimino-butyric acid cyclobutyl ester]
35 | 105% | CO/N=C(\CCC(=O)Oc1cccnc1)c1ccc(Cl)c(Cl)c1 [4-(3,4-Dichloro-phenyl)-4-methoxyimino-butyric acid pyridin-3-yl ester]
36 | 107% | CCO/N=C(\CCC(=O)OC)c1ccc(Cl)c(Cl)c1 [4-(3,4-Dichloro-phenyl)-4-ethoxyimino-butyric acid methyl ester]
